Publication PMC8386120, “Crystal Structure of Inorganic Pyrophosphatase From Schistosoma japonicum Reveals the Mechanism of Chemicals and Substrate Inhibition” (Frontiers in Cell and Developmental Biology, 2021)

Key:
SjPPase [1] = target: T1, SjPPase (Schistosoma japonicum, UniProt Q5DE13); experiment: Pi release, PiPer fluorescence phosphate assay; assay type: biochemical; set-up: homodimer; crystal residues 1-284 and 1-283; details: 1 and 2 mM MDP; PPi substrate, Mg2+, 25 C
T1 sequence (Q5DE13 1-287): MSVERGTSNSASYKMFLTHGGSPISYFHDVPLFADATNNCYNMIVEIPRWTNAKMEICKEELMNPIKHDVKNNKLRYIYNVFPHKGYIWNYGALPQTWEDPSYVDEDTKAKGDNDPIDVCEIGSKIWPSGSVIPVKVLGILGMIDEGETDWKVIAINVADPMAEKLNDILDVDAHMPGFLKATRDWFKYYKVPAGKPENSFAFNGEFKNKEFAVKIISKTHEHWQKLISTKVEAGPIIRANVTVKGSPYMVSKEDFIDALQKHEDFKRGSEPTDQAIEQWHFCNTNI

SjPPase [2] = target: T1, SjPPase; details: Co2+ bound; active site, P2 site (F intermediate)
[3] = target: Schistosoma japonicum soluble inorganic pyrophosphatase (recombinant SjPPase) (Schistosoma japonicum); experiment: crystal structure; X-ray crystal structures of apo-SjPPase (4QMB) and of SjPPase with Pi and cobalt ions (4QLZ); space group P32, two molecules in the asymmetric unit; first crystals from 0.2 M sodium malonate, 20% PEG 3,350, later optimised; protein at 16-18 mg/ml

In the case of O=P(O)(O)CP(=O)(O)O [methylene diphosphonic acid], the inhibition (SjPPase [1]) is reported as “inhibitors NaF and MDP inhibited the enzymatic activity of SjPPase”.
O=P(O)(O)O [orthophosphate] was tested, and the “X-ray crystal structure, 2.33 A” value (SjPPase [2]) was “the Pi in the SjPPase-Pi complex structure is at the P2 site”.
“Schistosoma japonicum soluble inorganic pyrophosphatase (recombinant SjPPase) (enzyme)” showed a stoichiometry N [3] of 2.
